Data reported in US20070191267A1, “Use of tyrosine kinase inhibitors for treating cerebral ischemia” (AB SCIENCE, priority 2003, published 2007).

Target: T1, c-kit (Homo sapiens, UniProt P10721)
T1 construct: purified intracellular domain of c-kit expressed in baculovirus; made in house
Assay: In vitro TK inhibition assay (ELISA, phosphorylation of tyrosine containing target peptide)
Type: biochemical
Conditions: purified intracellular domain of c-kit expressed in baculovirus
Method: in Vitro TK Inhibition Assays
Experiments were performed using purified intracellular domain of c-kit expressed in baculovirus. Estimation of the kinase activity was assessed by the phosphorylation of tyrosine containing target peptide estimated by established ELISA assay.

T1 sequence (P10721 546-976 limits assumed): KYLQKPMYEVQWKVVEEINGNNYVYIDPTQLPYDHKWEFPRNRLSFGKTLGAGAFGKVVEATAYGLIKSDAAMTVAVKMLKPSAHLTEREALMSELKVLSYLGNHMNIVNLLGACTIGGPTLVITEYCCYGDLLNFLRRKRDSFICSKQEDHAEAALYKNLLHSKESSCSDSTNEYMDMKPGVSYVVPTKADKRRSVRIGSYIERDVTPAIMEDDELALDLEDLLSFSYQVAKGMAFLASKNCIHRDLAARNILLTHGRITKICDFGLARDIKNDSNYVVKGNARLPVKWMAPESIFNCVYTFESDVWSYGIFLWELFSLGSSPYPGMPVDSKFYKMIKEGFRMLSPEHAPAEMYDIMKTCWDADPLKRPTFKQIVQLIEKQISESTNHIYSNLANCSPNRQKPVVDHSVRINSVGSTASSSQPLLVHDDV

IC50 [µM]	SMILES
< 10	Cc1ccc(NC(=O)Nc2ccccc2F)cc1Nc1nc(-c2cccnc2)cs1 [Compound 023, 1-(2-Fluoro-phenyl)-3-[4-methyl-3-(4-pyridin-3-yl-thiazol-2-ylamino)-phenyl]-urea]
< 10	Cc1ccc(NC(=O)c2ccc(-c3ccncc3)cc2)cc1Nc1nc(-c2cccnc2)cs1 [Compound 053]
< 10	Cc1ccc(NC(=O)c2cccc(C(F)(F)F)c2F)cc1Nc1nc(-c2cccnc2)cs1 [Compound 055, 2-Fluoro-N-[4-methyl-3-(4-pyridin-3-yl-thiazol-2-ylamino)-phenyl]-3-trifluoromethyl-benzamide]
< 10	Cc1ccc(NC(=O)c2ccc(CN3CCN(C)CC3)c(F)c2)cc1Nc1nc(-c2cccnc2)cs1 [Compound 074, 3-Fluoro-4-(4-methyl-piperazin-1-ylmethyl)-N-[4-methyl-3-(4-pyridin-3-yl-thiazol-2-ylarnino)-phenyl]-benzamide]

System: not given
Assay: not given
Conditions: not given

melting point [°C]	SMILES
203 to 206	Cc1ccc(NC(=O)Nc2ccccc2F)cc1Nc1nc(-c2cccnc2)cs1 [Compound 023, 1-(2-Fluoro-phenyl)-3-[4-methyl-3-(4-pyridin-3-yl-thiazol-2-ylamino)-phenyl]-urea]
210 to 215	Cc1ccc(NC(=O)Nc2cccc(F)c2)cc1Nc1nc(-c2cccnc2)cs1 [Compound 025, 1-(3-Fluoro-phenyl)-3-[4-methyl-3-(4-pyridin-3-yl-thiazol-2-ylamino)-phenyl]-urea]
103 to 106	Cc1ccc(F)c(C(=O)Nc2ccc(C)c(Nc3nc(-c4cccnc4)cs3)c2)c1 [Compound 048, 2-Fluoro-5-methyl-N-[4-methyl-3-(4-pyridin-3-yl-thiazol-2-ylamino)-phenyl]-benzamide]
145 to 150	Cc1ccc(NC(=O)c2ccc(C(C)(C)C)cc2)cc1Nc1nc(-c2cccnc2)cs1 [Compound 049, 4-tert-Butyl-N-[4-methyl-3-(4-pyridin-3-yl-thiazol-2-ylamino)-phenyl]-benzamide]
75 to 80	Cc1ccc(NC(=O)c2cccc(OCCN3CCOCC3)c2)cc1Nc1nc(-c2cccnc2)cs1 [Compound 052, N-[4-Methyl-3-(4-pyridin-3-yl-thiazol-2-ylamino)-phenyl]-3-(2-morpholin-4-yl-ethoxy)-benzamide]
247 to 248	Cc1ccc(NC(=O)c2cccc(N3CCOCC3)c2)cc1Nc1nc(-c2cccnc2)cs1 [Compound 090, N-[4-Methyl-3-(4-pyridin-3-yl-thiazol-2-ylamino)-phenyl]-3-morpholin-4-yl-benzamid]

The next lines start with the compound.

SMILES	melting point [°C]
Cc1ccc(NC(=O)Nc2ccc(C)c(Nc3nc(-c4cccnc4)cs3)c2)cc1 [Compound 026, 3-[4-Methyl-3-(4-pyridin-3-yl-thiazol-2-ylamino)-phenyl]-3-p-tolyl-urea]	238 to 240
Cc1ccc(NC(=O)c2ccc(NS(=O)(=O)c3cccs3)cc2)cc1Nc1nc(-c2cccnc2)cs1 [Compound 044, N-[4-Methyl-3-(4-pyridin-3-yl-thiazol-2-ylamino)-phenyl]-4-(thiophene-2-sulfonylamino)-benzamide]	230 to 233
Cc1ccc(NC(=O)c2cccc(F)c2)cc1Nc1nc(-c2cccnc2)cs1 [Compound 045, 3-Fluoro-N-[4-methyl-3-(4-pyridin-3-yl-thiazol-2-ylamino)-phenyl]-benzamide]	184 to 186
Cc1ccc(NC(=O)c2ccc(-c3ccncc3)cc2)cc1Nc1nc(-c2cccnc2)cs1 [Compound 046, N-[4-Methyl-3-(4-pyridin-3-yl-thiazol-2-ylamino)-phenyl]-4-pyridin-4-yl-benzamide]	254 to 256
Cc1ccc(NC(=O)c2ccc(N(C)C)cc2)cc1Nc1nc(-c2cccnc2)cs1 [Compound 047, 4-Dimethylamino-N-[4-methyl-3-(4-pyridin-3-yl-thiazol-2-ylamino)-phenyl]-benzamide]	147 to 150
Cc1ccc(NC(=O)c2cccc(N(C)C)c2)cc1Nc1nc(-c2cccnc2)cs1 [Compound 088, 3-Dimethylamino-N-[4-methyl-3-(4-pyridin-3-yl-thiazol-2-ylamino)-phenyl]-benzamide]	197 to 198
Cc1ccc(NC(=O)CCCN2CCOCC2)cc1Nc1nc(-c2cccnc2)cs1 [Compound 096, N-[4-Methyl-3-(4-pyridin-3-yl-thiazol-2-ylamtino)-phenyl]-4-morpholin-4-yl-butyramide]	116 to 120
